Data: patent US20050119180A1, “Use of angiotensin 1-7 for enhancing cardiac function” (priority 2002, published 2005)

Tests used:
[1] = system: male Sprague-Dawley rats with myocardial infarction (left coronary artery ligation); experiment: In vivo hemodynamic studies under isoflurane anesthesia with microtip pressure transducer in MI rats; set-up: species or system rat
Description: (§1) The Animal Research Committee of the University of Groningen approved this study. Left coronary artery ligations were performed in 39 male Sprague-Dawley rats weighing 250 to 300 g (Harlan; Zeist, the Netherlands).^14 Perioperative mortality was 49%. Two weeks after induction of MI, rats were randomly allocated to intravenous infusion of either Ang-(1-7) (24 μg/kg per hour; n=10) or saline (n=10) by osmotic minipumps (Alzet 2004). Sham-operated controls (n=10) received saline. After eight weeks of treatment, hemodynamic studies were performed under isoflurane anesthesia with a microtip pressure transducer,^15 coronary flow was measured in a Langendorff setup,^14 endothelial function was tested in isolated aortic rings,^14 and plasma Ang-(1-7) levels were measured by radioimmunoassay.^16
(§2) After eight weeks of treatment, cardiac function was measured in vivo in anesthetized rats. […] Coronary flow was measured ex vivo in a Langendorff setup. […] Coronary endothelial function and maximal coronary flow were tested by a two-minute infusion of 3×10^−8 mol/L bradykinin and 10^−5 mol/L adenosine, respectively.

[2] = system: male Sprague-Dawley rats with myocardial infarction (left coronary artery ligation); experiment: General characteristics and histology after eight weeks of treatment in rat coronary artery ligation (MI) model; type: in vivo
Description: as §1
Midventricular slices were processed for histochemical analysis. Infarct size was determined on picrosirius red/fast green-stained sections and was expressed as the percentage of scar length of total left ventricular circumference.^14 Rats with infarcts smaller than 20% were excluded (n=3 for Ang-(1-7) and n=1 for saline-treated rats). Capillary density was determined on sections stained with biotin-labeled Griffonia siinplicifolia lectin I (GSL-I) and hematoxylin and was expressed as the number of capillaries per mm^2. Myocyte cross-sectional area was measured on hematoxylin/eosin-stained sections.
Data are presented as mean±SEM. Statistical analysis between the groups was performed by one-way ANOVA followed by Bonferroni's t test. Differences in dose-response curves were tested by ANOVA for repeated measures with Greenhouse-Geisser correction for asphericity. Differences were considered significant at P<0.05.

[3] = system: hearts of infarcted rats (Langendorff setup); experiment: Ex vivo coronary flow in a Langendorff setup, hearts of treated MI rats; set-up: species or system rat
Description: as §1, §2

[4] = system: isolated aortic rings of infarcted rats; experiment: Endothelium-dependent relaxation in isolated aortic rings of treated MI rats; type: in vivo, rat; details: aortic rings of MI rats after eight weeks of Ang-(1-7); P<0.05 versus MI control
Description: as §1
Endothelial dysfunction is a key feature in heart failure.^14 To examine the effects of Ang-(1-7) treatment on this aspect of cardiac failure, we investigated endothelium-dependent relaxation in isolated aortic rings. Phenylephrine elicited similar contractile responses in all three groups (data not shown). […] The relaxation in response to the endothelium independent vasodilator NaNO2 (10^−2 mol/L) was equal in the three groups (data not shown).

[5] = Plasma Ang-(1-7) levels by radioimmunoassay at end of intravenous infusion; type: in vivo, rat; details: MI rats, iv infusion 24 μg/kg per hour
Description: as §1

[6] = Ang-(1-7) 24 μg/kg per hour iv, eight weeks, mean ± SEM

**Q.** Which results are given for `CC[C@H](C)[C@H](NC(=O)[C@H](Cc1ccc(O)cc1)NC(=O)[C@@H](NC(=O)[C@H](CCCNC(=N)N)NC(=O)[C@@H](N)CC(=O)O)C(C)C)C(=O)N[C@@H](Cc1c[nH]cn1)C(=O)N1CCC[C@H]1C(=O)O` [Ang-(1-7), angiotensin-(1-7)]?
**A.** mean arterial pressure, in words ([1]; MI rats infused with Ang-(1-7), eight weeks): an increase in mean arterial pressure was found; reduction in left ventricular end-diastolic pressure ([1]; MI rats, eight weeks of Ang-(1-7) treatment): 40%; cardiac function (hemodynamic parameters LVP, LVEDP, MAP, +dP/dt, −dP/dt) compared with sham, in words ([1]; anesthetized MI rats after eight weeks of treatment): none of these parameters were significantly deteriorated, except the systolic dP/dt; capillary density ([2]; Ang-(1-7) 24 μg/kg per hour iv, eight weeks, GSL-I lectin stain, mean ± SEM): 2578 ± 176 N/mm^2; myocyte cross-sectional area ([2]; Ang-(1-7) 24 μg/kg per hour iv, eight weeks, hematoxylin/eosin-stained sections, mean ± SEM): 409 ± 21; LVW/BW (left ventricular weight body weight ratio) [2, 6]: 3.42 ± 0.10 mg/g; infarct size (percentage of scar length of total left ventricular circumference) [2, 6]: 29.6 ± 3.3%; myocyte cross-sectional area increase after infarction, in words ([2]; eight weeks of Ang-(1-7)): attenuated to a nonsignificant level; capillary density versus saline-treated MI group, in words ([2]; eight weeks of treatment): did not differ; infarct size versus saline-treated MI group, in words ([2]; eight weeks of treatment): did not differ; baseline coronary flow compared with sham-operated hearts, in words ([3]; Langendorff, MI rats after eight weeks of Ang-(1-7)): almost completely preserved; maximal coronary flow after adenosine infusion compared with sham, in words ([3]; Langendorff, adenosine 10^−5 mol/L, MI rats after eight weeks of Ang-(1-7)): the difference did not reach statistical significance; bradykinin-dependent coronary flow compared with sham, in words ([3]; Langendorff, bradykinin 3×10^−8 mol/L, MI rats after eight weeks of Ang-(1-7)): not significantly impaired; Ex vivo coronary flow, baseline ([3]; hearts of MI rats after eight weeks of Ang-(1-7) 24 μg/kg per hour iv, baseline): 8.2 ± 0.6 ml/min per g ventricular weight; Ex vivo coronary flow, adenosine 10^−5 M ([3]; hearts of MI rats after eight weeks of Ang-(1-7), two-minute infusion of adenosine 10^−5 M (maximal coronary flow)): 12.3 ± 0.8 ml/min per g ventricular weight; Ex vivo coronary flow, bradykinin 3 × 10^−8 M ([3]; hearts of MI rats after eight weeks of Ang-(1-7), two-minute infusion of bradykinin 3 × 10^−8 M (coronary endothelial function)): 11.1 ± 0.7 ml/min per g ventricular weight; metacholine-induced relaxation of phenylephrine pre-contracted aortic rings, in words [4]: identical to sham rats; [Ang-(1-7)] plasma concentration of angiotensin-(1-7) ([5]; end of eight weeks of treatment, mean ± SEM): 917.8 ± 194.1 pmol/L; increase of plasma levels of the peptide compared with MI controls ([5]; end of treatment): 40 fold; level at time molar at 1344 h ([5]; male, Sprague-Dawley, rat, plasma, 24 ug/kg per hour, end of eight weeks of treatment, mean ± SEM, read-out: [Ang-(1-7)] plasma concentration of angiotensin-(1-7)): 0.918 ± 0.194 nM
